Reference: patent publication US9669001B2, “Antimicrobial composition” (CONVATEC TECHNOLOGIES INC., priority 2008, dated 2017)

Experiments:
Assay type in all cases: cell-based
[1] = tested on: P. aeruginosa biofilms; experiment: Minimum Biofilm Eradication Concentration (MBEC) method with cyan LED illumination; settings: combinations in sterile water, cyan LED lamp; FIG. 4
[2] = tested on: P. aeruginosa biofilms; experiment: Photo-catalytic therapy, in vitro wound biofilm model (pork belly)
[3] = tested on: S. aureus biofilms; experiment: as above; settings: higher doses of RB and light, post-treatment rinse; FIG. 2

O=C(O)CN(CCN(CC(=O)O)CC(=O)O)CC(=O)O [EDTA, ethylene diamine tetraacetic acid]
effect on the action of RB and light against biofilms [1]: potentiates the action of RB and light in a concentration-dependent manner

O=C1OC2(c3cc(I)c(O)c(I)c3Oc3c2cc(I)c(O)c3I)c2c(Cl)c(Cl)c(Cl)c(Cl)c21 [Rose Bengal, 4,5,6,7-Tetrachloro-3′,6′-dihydroxy-2′,4′,5′,7′-tetriodo-3H-spiro[isobenzofuran-1,9′-xanthen]-3-one]
biofilm removal (reduction in P. aeruginosa) ([2]; 25 μM RB, PCT with post-treatment rinse step, FIG. 1): 2 log | P. aeruginosa biofilm bacteria cell killing on raising dose ([2]; RB and light dose increased five-fold, no post-treatment rinse, FIG. 1 bars 2 & 4): significantly increased reduction | biofilm cell reductions [3]: over 3 log10

dialkyl dimethyl ammonium chloride [DDAC]
effect on the action of RB and light against biofilms [1]: potentiates the action of RB and light in a concentration-dependent manner
